Source: patent US8980911B2, “Heterocyclic compounds as protein kinase inhibitors” (Daiichi Sankyo Company, Limited, priority 2011, dated 2015)

Columns and labels:
Format in all cases: biochemical
JAK2 = target: T1, JAK2 (Homo sapiens, UniProt O60674); experiment: In vitro enzyme assay (cell-free HTRF kinase assay), JAK2; conditions: catalytic domain, His-tag; ATP 10 μM, SRCtide 25 nM, reaction 30 min
T1 construct: All enzymes only contain the catalytic domain; His (N); purchased Carna Bioscience, Inc; host or cells: baculovirus expression system
Description: (§1) Kinase buffer [50 mM HEPES (pH 7.5), 1 mM EGTA, 10 mM MgCl2, 2 mM DTT and 0.01% Tween-20) was prepared and dilutions of a compound of formula (I) and other reagents were subsequently made in it. Two times concentrated compound of formula (I) solution: A compound of formula (I) was diluted to 100-fold final concentration in DMSO, followed by 50-fold dilution with Kinase buffer (1% DMSO final concentration). Four times concentrated Substrate/ATP mix solution: Biotin-SRCtide and ATP were diluted to 4-fold final concentration in Kinase buffer. Biotin-SRCtide solution (purchased from Anaspec) was mixed with ATP solution (1:1). Four times concentrated Enzyme solution: JAK1 or JAK2 or JAK3 or TYK2 enzyme [Human baculo virus expressed JAK1, JAK2, JAK3 and TYK2 were purchased from Carna Bioscience, Inc. All enzymes only contain the catalytic domain. JAK1 (aa 850-1154) and TYK2 (aa 871-1187) are expressed with an N-terminally fused GST-tag, and JAK2 and JAK3 with an N-terminally fused His-tag] was diluted to 4-fold final concentration in Kinase buffer and always kept on ice. Detection buffer: LANCE detection buffer (10 times concentrated) was diluted 10-fold in H2O. Four times concentrated stop solution: EDTA was diluted to a concentration of 40 mM in detection buffer. Four times concentrated ULight/Eu-antibody (from Perkin Elmer) mix solution: ULight-Streptavidin was diluted to a concentration of 100 nM (25 ng/mL final concentrations) and Eu-anti-phospho-Tyrosine (PT66) (from Perkin Elmer) was diluted to a concentration of 8 nM (2 ng/mL final concentration) in detection buffer.
(§2) Cell-free in vitro kinase assay was performed in 384 well plates. Two times concentrated compound solution (5 μL) was pipetted into a HTS 384SV Small Volume Plate. Four times concentrated Substrate/ATP mix (2.5 μL) solution was added along with 4 times concentrated Enzyme solution (2.5 μL). Plate was covered with TopSeal-A and incubated at room temperature for indicated time (Table 3). Four times concentrated Stop solution (5 μL, 10 mM final concentration) was added and incubated for 5 minutes at room temperature. Four times concentrated ULight/Eu-antibody mix solution (5 μL) was added and again plate was covered with TopSeal and incubated overnight at 4° C. TopSeal was removed and HTRF signal was measured at 615 nm and […] (excitation at 320 or 340 nm) on Tecan M1000 Multi mode plate reader. Ratio (665 nm/615 nm)×10^4 was calculated and IC50 values were deduced from Graph-pad prism 4.2.

JAK1 = target: T2, JAK1 (Homo sapiens, UniProt P23458); experiment: In vitro enzyme assay (cell-free HTRF kinase assay), JAK1; conditions: catalytic domain aa 850-1154, GST-tag; ATP 60 μM, SRCtide 400 nM, reaction 120 min
T2 construct: JAK1 (aa 850-1154) and TYK2 (aa 871-1187) are expressed with an N-terminally fused GST-tag; GST (N); purchased Carna Bioscience, Inc; host or cells: baculovirus expression system
Description: as §1, §2

JAK3 = target: T3, JAK3 (Homo sapiens, UniProt P52333); experiment: In vitro enzyme assay (cell-free HTRF kinase assay), JAK3; conditions: catalytic domain, His-tag; ATP 3 μM, SRCtide 100 nM, reaction 30 min
T3 construct: All enzymes only contain the catalytic domain; His (N); purchased Carna Bioscience, Inc; host or cells: baculovirus expression system
Description: as §1, §2

T1 sequence (O60674 849-1124 limits assumed): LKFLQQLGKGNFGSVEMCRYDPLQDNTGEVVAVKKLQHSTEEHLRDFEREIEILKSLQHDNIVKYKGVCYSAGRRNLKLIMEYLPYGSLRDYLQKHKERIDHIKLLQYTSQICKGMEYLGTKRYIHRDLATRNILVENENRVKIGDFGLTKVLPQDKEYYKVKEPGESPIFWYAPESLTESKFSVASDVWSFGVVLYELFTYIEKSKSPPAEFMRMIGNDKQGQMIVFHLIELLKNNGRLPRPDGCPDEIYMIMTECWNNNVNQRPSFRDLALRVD
T3 sequence (P52333 822-1111 limits assumed): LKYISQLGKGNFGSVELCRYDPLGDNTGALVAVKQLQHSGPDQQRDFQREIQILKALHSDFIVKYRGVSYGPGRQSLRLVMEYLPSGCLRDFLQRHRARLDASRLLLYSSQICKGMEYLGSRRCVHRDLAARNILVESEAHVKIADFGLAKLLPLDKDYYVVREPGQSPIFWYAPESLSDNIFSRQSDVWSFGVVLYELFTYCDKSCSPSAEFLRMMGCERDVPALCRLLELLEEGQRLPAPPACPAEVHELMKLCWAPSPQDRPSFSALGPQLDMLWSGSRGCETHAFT
T2 sequence (P23458 850-1154): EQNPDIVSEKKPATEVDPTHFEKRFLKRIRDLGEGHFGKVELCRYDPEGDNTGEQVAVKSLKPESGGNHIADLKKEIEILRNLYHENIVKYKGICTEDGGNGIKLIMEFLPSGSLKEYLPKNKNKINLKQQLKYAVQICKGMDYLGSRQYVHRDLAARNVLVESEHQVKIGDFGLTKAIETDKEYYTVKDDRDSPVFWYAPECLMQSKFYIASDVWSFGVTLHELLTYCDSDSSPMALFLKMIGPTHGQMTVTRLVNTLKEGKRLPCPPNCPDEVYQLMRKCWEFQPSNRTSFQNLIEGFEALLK

SMILES	IC50 (JAK2) [nM]	IC50 (JAK1) [nM]	IC50 (JAK3) [nM]
CCNC(=O)c1cc(Cl)c(C(=O)n2ccc3c(NC(=O)C4CC4)nccc32)c(Cl)c1 [Compound No. 93, 3,5-Dichloro-4-({4-[(cyclopropylcarbonyl)amino]-1H-pyrrolo[3,2-c]pyridin-1-yl}carbonyl)-N-ethylbenzamide]	< 1000	< 500	< 1000
O=C(Nc1nccc2c1ccn2C(=O)c1c(Cl)cc(CNCCCN2CCOCC2)cc1Cl)C1CC1 [Compound No. 166, N-{1-[2,6-Dichloro-4-({[3-(morpholin-4-yl)propyl]amino}methyl)benzoyl]-1H-pyrrolo[3,2-c]pyridin-4-yl}cyclopropanecarboxamide]	< 1000	< 500	< 500
N#Cc1cc(Cl)c(C(=O)n2ccc3cnccc32)c(Cl)c1 [Compound No. 95, 3,5-Dichloro-4-(1H-pyrrolo[3,2-c]pyridin-1-ylcarbonyl)benzonitrile]	< 500	< 1000	< 500
CN(C)CCNC(=O)c1cc(Cl)c(C(=O)n2ccc3c(NC(=O)C4CC4)nccc32)c(Cl)c1 [Compound No. 122, 3,5-Dichloro-4-({4-[(cyclopropylcarbonyl)amino]-1H-pyrrolo[3,2-c]pyridin-1-yl}carbonyl)-N-[2-(dimethylamino)ethyl]benzamide]	< 500	< 1000	< 100
O=C(NC1CC1)c1cc(Cl)c(C(=O)c2c[nH]c3c(NC(=O)C4CC4)nccc23)c(Cl)c1 [Compound No. 54, 3,5-Dichloro-N-cyclopropyl-4-({7-[(cyclopropylcarbonyl)amino]-1H-pyrrolo[2,3-c]pyridin-3-yl}carbonyl)benzamide]	< 500	< 500	< 500
Nc1cc(Cl)c(C(=O)c2c[nH]c3c(NC(=O)C4CC4)nccc23)c(Cl)c1 [Compound No. 26, N-[3-(4-Amino-2,6-dichlorobenzoyl)-1H-pyrrolo[2,3-c]pyridin-7-yl]cyclopropanecarboxamide]	< 500	< 500	< 100
COC(=O)CNC(=O)c1cc(Cl)c(C(=O)c2c[nH]c3c(NC(=O)C4CC4)nccc23)c(Cl)c1 [Compound No. 35, Methyl N-[3,5-dichloro-4-({7-[(cyclopropylcarbonyl)amino]-1H-pyrrolo[2,3-c]pyridin-3-yl}carbonyl)benzoyl]glycinate]	< 500	< 500	< 500
O=C(NCCN1CCCCC1)c1cc(Cl)c(C(=O)n2ccc3c(NC(=O)C4CC4)nccc32)c(Cl)c1 [Compound No. 150, 3,5-Dichloro-4-({4-[(cyclopropylcarbonyl)amino]-1H-pyrrolo[3,2-c]pyridin-1-yl}carbonyl)-N[2-(piperidin-1-yl)ethyl]benzamide]	< 500	< 500	< 500
O=C(NCC(O)CO)c1cc(Cl)c(C(=O)c2c[nH]c3c(NC(=O)C4CC4)nccc23)c(Cl)c1 (stereo not drawn) [Compound No. 32, 3,5-Dichloro-4-({7-[(cyclopropylcarbonyl)amino]-1H-pyrrolo[2,3-c]pyridin-3-yl}carbonyl)-N-(2,3-dihydroxypropyl)benzamide]	< 500	< 500	< 50
O=C(NCCO)Nc1cc(Cl)c(C(=O)n2ccc3c(NC(=O)C4CC4)nccc32)c(Cl)c1 [Compound No. 115, N-[1-(2,6-Dichloro-4-{[(2-hydroxyethyl)carbamoyl]amino}benzoyl)-1H-pyrrolo[3,2-c]pyridin-4-yl]cyclopropanecarboxamide]	< 500	< 1000	< 500
O=C(Nc1nccc2c1ccn2C(=O)c1c(Cl)cc(CO)cc1Cl)C1CC1 [Compound No. 96, N-{1-[2,6-Dichloro-4-(hydroxymethyl)benzoyl]-1H-pyrrolo[3,2-c]pyridin-4-yl}cyclopropanecarboxamide]	< 500	< 1000	< 500
O=C(Nc1nccc2c1ccn2C(=O)c1c(Cl)cc(CNCCCO)cc1Cl)C1CC1 [Compound No. 167, N-[1-(2,6-Dichloro-4-{[(3-hydroxypropyl)amino]methyl}benzoyl)-1H-pyrrolo[3,2-c]pyridin-4-yl]cyclopropanecarboxamide]	< 500	< 500	< 500
O=C(NCCN1CCCC1)c1cc(Cl)c(C(=O)n2ccc3c(NC(=O)C4CC4)nccc32)c(Cl)c1 [Compound No. 148, 3,5-Dichloro-4-({4-[(cyclopropylcarbonyl)amino]-1H-pyrrolo[3,2-c]pyridin-1-yl}carbonyl)-N-[2-(pyrrolidin-1-yl)ethyl]benzamide]	< 500	< 500	< 100
CCNCc1cc(Cl)c(C(=O)c2c[nH]c3c(NC(=O)C4CC4)nccc23)c(Cl)c1 [Compound No. 67, N-(3-{2,6-Dichloro-4-[(ethylamino)methyl]benzoyl}-1H-pyrrolo[2,3-c]pyridin-7-yl)cyclopropanecarboxamide]	< 500	< 100	< 100
CCOCCCNC(=O)c1cc(F)c(C(=O)c2c[nH]c3c(NC(=O)C4CC4)nccc23)c(F)c1 [Compound No. 64, 4-({7-[(Cyclopropylcarbonyl)amino]-1H-pyrrolo[2,3-c]pyridin-3-yl}carbonyl)-N-(3-ethoxypropyl)-3,5-difluorobenzamide]	< 1000	< 500	< 1000

Next, values leading:

IC50 (JAK2) [nM]	IC50 (JAK1) [nM]	IC50 (JAK3) [nM]	SMILES
< 100	< 1000	< 100	O=C(c1c(Cl)cc(-c2cncnc2)cc1Cl)c1c[nH]c2c(NC(=O)C3CC3)nccc12 [Compound No. 47, N-{3-[2,6-Dichloro-4-(pyrimidin-5-yl)benzoyl]-1H-pyrrolo[2,3-c]pyridin-7-yl}cyclopropanecarboxamide]
< 100	< 100	< 50	CNCc1cc(Cl)c(C(=O)c2c[nH]c3c(NC(=O)C4CC4)nccc23)c(Cl)c1 [Compound No. 66, N-(3-{2,6-Dichloro-4-[(methylamino)methyl]benzoyl}-1H-pyrrolo[2,3-c]pyridin-7-yl)cyclopropanecarboxamide]
< 500	< 1000	< 500	O=C(NCCF)c1cc(Cl)c(C(=O)n2ccc3c(NC(=O)C4CC4)nccc32)c(Cl)c1 [Compound No. 154, 3,5-Dichloro-4-({4-[(cyclopropylcarbonyl)amino]-1H-pyrrolo[3,2-c]pyridin-1-yl}carbonyl)-N-(2-fluoroethyl)benzamide]
< 50	< 100	< 50	O=C(Nc1cc2c(ccn2C(=O)c2c(Cl)cccc2Cl)cn1)C1CC1 [Compound No. 120, N-[1-(2,6-Dichlorobenzoyl)-1H-pyrrolo[3,2-c]pyridin-6-yl]cyclopropanecarboxamide]
< 50	< 500	< 100	CCNC(=O)c1cc(Cl)c(C(=O)n2ccc3cnc(NC(=O)C4CC4)cc32)c(Cl)c1 [Compound No. 130, 3,5-dichloro-4-({6-[(cyclopropylcarbonyl)amino]-1H-pyrrolo[3,2-c]pyridin-1-yl}carbonyl)-N-ethylbenzamide]
< 100	< 500	< 1000	Cc1noc(C)c1-c1cc(Cl)c(C(=O)n2ccc3c(NC(=O)C4CC4)nccc32)c(Cl)c1 [Compound No. 87, N-{1-[2,6-Dichloro-4-(3,5-dimethyl-1,2-oxazol-4-yl)benzoyl]-1H-pyrrolo[3,2-c]pyridin-4-yl}cyclopropanecarboxamide]
< 100	< 500	< 100	O=C(c1c(F)cccc1Cl)c1c[nH]c2c(NC(=O)C3CC3)nccc12 [Compound No. 11, N-[3-(2-Chloro-6-fluorobenzoyl)-1H-pyrrolo[2,3-c]pyridin-7-yl]cyclopropanecarboxamide]
